In patent US20190231748A1, “COMPOSITION FOR VAGINA AND ANTIMICROBIAL AGENT COMBINATION FOR USE IN PREPARING COMPOSITION FOR VAGINA” (Shenzhen Eulikan Biotechnology Co., Ltd., priority 2016, published 2019):

Legend:
[1] = tested on: three strains of Staphylococcus aureus isolated from the vaginal secretion of patients with vaginitis; test: Growth in enrichment broth (turbidity after 24 hours), clinical strains; format: cell-based
Excerpt: (§1) a. Experimental strains, three strains of Escherichia coli and three strains of Staphylococcus aureus, which were all isolated from the vaginal secretion of patients with vaginitis.
(§2) b. Enrichment broth, which contained 1 percent of yeast extract powder, 9 percent of sucrose, 0.025 percent of manganese sulfate (MnSO4.4H2O), 0.058 percent of magnesium sulfate (MgSO4.7H2O), and 0.9 percent of lactic acid, the pH value of the broth was adjusted to 4.8, and the enrichment broth was sterilized for later use;
(§3) (2). Experimental groups: the requirements for aseptic operation technique were strictly followed to prepare the sterile test tubes:
(§4) a. sodium benzoate group: each test tube contained 5 milliliters of enrichment broth, and was added in 0.05 percent (weight/volume) sodium benzoate;
(§5) b. 2-phenylethanol group: each test tube contained 5 milliliters of enrichment broth, and was added in 0.05 percent (weight/volume) of 2-phenylethanol;
(§6) c. sodium propionate group: each test tube contained 5 milliliters of enrichment broth, and was added in 0.25 percent (weight/volume) of sodium propionate;
(§7) d. “a group of the combinations of sodium benzoate and sodium propionate”: each test tube contained 5 milliliters of enrichment broth, and was added in 0.05 percent (weight/volume) of sodium benzoate and 0.25 percent (weight/volume) of sodium propionate;
(§8) e. “a group of the combinations of sodium benzoate and 2-phenylethanol”: each test tube contained 5 milliliters of enrichment broth, and was added in 0.05 percent (weight/volume) of sodium benzoate and 0.05 percent (weight/volume) of 2-phenylethanol;
(§9) f. “a group of the combinations of sodium propionate and 2-phenylethanol”: each test tube contained 5 milliliters of enrichment broth, and was added in 0.25 percent (weight/volume) of sodium propionate and 0.05 percent (weight/volume) of 2-phenylethanol;
(§10) g. “a group of the combinations of sodium benzoate, sodium propionate and 2-phenylethanol”: each test tube contained 5 milliliters of enrichment broth, and was added in 0.05 percent (weight/volume) of sodium benzoate, 0.25 percent (weight/volume) of sodium propionate, and 0.05 percent (weight/volume) of 2-phenylethanol;
(§11) h. positive control: one tube that contained 5 milliliters of enrichment broth without adding in any of the 2-phenylethanol, sodium benzoate, and sodium propionate, but inoculated the suspension of Escherichia coli or Staphylococcus aureus.
(§12) i. negative control: one tube that contained 5 milliliters of enrichment broth without adding in any of the 2-phenylethanol, sodium benzoate, and sodium propionate, and not inoculated the suspension of Escherichia coli or Staphylococcus aureus.
(§13) The requirements for aseptic operation technique were strictly followed to prepare the bacterial suspensions. The colonies of Escherichia coli and Staphylococcus aureus were diluted with physiological saline respectively to prepare bacterial suspension. The turbidities of the Escherichia coli suspension and the Staphylococcus aureus suspension were adjusted to 0.5 MCF (about 10^8 CFU/ml) by a turbidimeter. 1 milliliter of the 0.5 MCF bacterial suspensions were added into 9 milliliters of the enrichment broth respectively, so each bacterial solution was diluted for ten times to contain 10^7 CFU/ml of bacterial organisms.
(§14) The requirements for aseptic operation technique were strictly followed to take 100 microliters of the prepared bacterial suspensions respectively, and to add the bacterial suspensions into the aforesaid test tubes from a to h as well as positive control tube. No bacterial suspension was added into the negative control tube i.
(§15) The above tubes were cultured in a biochemical incubator at 37° C. for 24 hours, then turbidity changes of the test tube solutions were observed and recorded.
(§16) Remark: “+” means the growth of bacteria; “−” means no growth of bacteria.

[2] = tested on: three strains of Escherichia coli isolated from the vaginal secretion of patients with vaginitis; test: as above; format: cell-based
Excerpt: as §1, §2, §3, §4, §5, §6, §7, §8, §9, §10, §11, §12, §13, §14, §15, §16

[3] = 0.05 percent (weight/volume) in enrichment broth pH 4.8, 37° C. 24 hours
[4] = 0.25 percent (weight/volume) in enrichment broth pH 4.8, 37° C. 24 hours

Compound	could inhibit the growth of Staphylococcus aureus (agent alone, words) [1, 3]	could inhibit the growth of Escherichia coli (agent alone, words) [2, 3]	could inhibit the growth of Staphylococcus aureus (agent alone, words) [1, 4]	could inhibit the growth of Escherichia coli (agent alone, words) [2, 4]
OCCc1ccccc1 [2-phenylethanol]	no one of the three antimicrobial agents	no one of the three antimicrobial agents		
CCC(=O)[O-].[Na+] [sodium propionate]			no one of the three antimicrobial agents	no one of the three antimicrobial agents
